Source: patent publication US20260276625A1, “SCREENING METHOD FOR COMPOUND INDUCING AUTOPHAGY” (TOHOKU UNIVERSITY, priority 2023, published 2026)

Key:
Assay type in all cases: cell-based
[1] = molecular target: T1, RFP-p62 (Homo sapiens, UniProt P62942+Q13501); test: Droplet formation, live cell imaging of HeLa cells expressing GFP-FKBP12 and RFP-p62, 1,6-hexanediol; settings: 10 μM, 13 hours; disappeared after addition of 5% 1,6-hexanediol
T1 construct: expressed in transfected cells; host or cells: HeLa
Description: (§1) HeLa cells transiently expressing GFP-FKBP12 and RFP-DDX5, or GFP-FKBP12 and RFP-p62 were treated with AUTAC2-2G added in such an amount as to achieve a concentration of 10 μM for 13 hours. The treated cells were subjected to live cell imaging by a fluorescence microscope, and fluorescence derived from GFP and RFP was continuously observed. On the way, 5% 1,6-hexanediol was added 5 minutes after the start of observation to observe whether a dot-like structure in the field of view disappeared.
(§2) 1,6-Hexanediol is known to have an action of eliminating droplets, and this makes it possible to confirm whether the dot-like structure in the field of view of the microscope is a droplet.

[2] = molecular target: T2, RFP-DDX5 (Homo sapiens, UniProt P17844+P62942); test: Droplet formation, live cell imaging of HeLa cells expressing GFP-FKBP12 and RFP-DDX5, 1,6-hexanediol; settings: 10 μM, 13 hours; disappeared after addition of 5% 1,6-hexanediol
T2 construct: expressed in transfected cells; host or cells: HeLa
Description: as §1, §2

[3] = molecular target: T3, GFP-αSyn-FKBP^F36V (Homo sapiens, UniProt P62942, F37V); test: Mutant FKBP-tagged synuclein degradation test (GFP fluorescence microscopy, HeLa cells); settings: 48 hours, compared with untreated group (DMSO)
T3 construct: expressed in transfected cells; host or cells: HeLa
Description: HeLa cells transiently expressing GFP-α-synuclein tagged with a mutant FKBP (GFP-αSyn-FKBP^F36V) were treated with SLF′-AUTAC for 48 hours. In each of the wells of non-treated cells and treated cells, GFP fluorescence was photographed with a fluorescence microscope. Degradation of GFP-αSyn-FKBP^F36V was evaluated from the GFP fluorescence intensity.

[4] = molecular target: T4, DDX5 and p62 (Homo sapiens, UniProt P17844); test: Droplet formation of DDX5 and p62, immunostaining of HeLa cells expressing GFP-FKBP^F36V; settings: 1 μM, 12 hours, fixed cells, anti-DDX5 and anti-p62 antibody
T4 construct: endogenous in cells; host or cells: HeLa (transiently expressing GFP-FKBP^F36V)
Source text: Such a “droplet” can be confirmed by labeling a DEAD-box RNA helicase and/or p62 with a fluorescent label or the like, introducing a test compound into a system in which they exist, preferably treating cells expressing at least one of these with the test compound, and observing the presence of a substance visualized by the label with a fluorescence microscope or the like. In addition, for the purpose of confirming the properties of the liquid in more detail, it is preferable to combine this method with the fluorescence recovery after photobleaching (FRAP).
HeLa cells transiently expressing GFP tagged with a mutant FKBP (GFP-FKBP^F36V) were treated with 1 μM SLF′-AUTAC for 12 hours. The treated cells were fixed with 4% paraformaldehyde, then permeabilized with 0.1% TritonX-100/PBS, blocked with 1% BSA/PBS, immersed in PBS containing 1% rabbit-derived anti-DDX5 antibody and 1% mouse-derived anti-p62 antibody, and incubated at 4° C. overnight. Subsequently, the cells were immersed in PBS containing 1% AlexaFluor555-labeled anti-rabbit IgG and 1% AlexaFluor555-labeled anti-mouse IgG, and incubated at rccm temperature for 1 hour.

T3 sequence (P62942 whole entry F37V): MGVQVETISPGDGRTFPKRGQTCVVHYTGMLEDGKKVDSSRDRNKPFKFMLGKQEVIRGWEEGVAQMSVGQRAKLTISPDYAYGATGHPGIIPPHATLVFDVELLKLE
T1 sequence (Q13501 whole entry): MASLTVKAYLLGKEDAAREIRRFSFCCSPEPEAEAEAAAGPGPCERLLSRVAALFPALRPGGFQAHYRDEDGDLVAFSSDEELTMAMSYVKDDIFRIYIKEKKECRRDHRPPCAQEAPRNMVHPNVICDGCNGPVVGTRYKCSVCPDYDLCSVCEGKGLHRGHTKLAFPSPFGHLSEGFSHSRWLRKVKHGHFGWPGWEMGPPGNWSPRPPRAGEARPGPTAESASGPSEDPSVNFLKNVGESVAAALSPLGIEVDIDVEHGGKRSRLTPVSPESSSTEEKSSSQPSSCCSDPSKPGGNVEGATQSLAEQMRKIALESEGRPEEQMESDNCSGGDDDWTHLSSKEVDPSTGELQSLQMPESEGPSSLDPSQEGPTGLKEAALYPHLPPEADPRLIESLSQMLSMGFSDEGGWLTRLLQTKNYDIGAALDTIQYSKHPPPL
T1 sequence (P62942 whole entry): as the sequence (P62942 whole entry F37V) above, with V37F counted along it
T2 sequence (P17844 whole entry): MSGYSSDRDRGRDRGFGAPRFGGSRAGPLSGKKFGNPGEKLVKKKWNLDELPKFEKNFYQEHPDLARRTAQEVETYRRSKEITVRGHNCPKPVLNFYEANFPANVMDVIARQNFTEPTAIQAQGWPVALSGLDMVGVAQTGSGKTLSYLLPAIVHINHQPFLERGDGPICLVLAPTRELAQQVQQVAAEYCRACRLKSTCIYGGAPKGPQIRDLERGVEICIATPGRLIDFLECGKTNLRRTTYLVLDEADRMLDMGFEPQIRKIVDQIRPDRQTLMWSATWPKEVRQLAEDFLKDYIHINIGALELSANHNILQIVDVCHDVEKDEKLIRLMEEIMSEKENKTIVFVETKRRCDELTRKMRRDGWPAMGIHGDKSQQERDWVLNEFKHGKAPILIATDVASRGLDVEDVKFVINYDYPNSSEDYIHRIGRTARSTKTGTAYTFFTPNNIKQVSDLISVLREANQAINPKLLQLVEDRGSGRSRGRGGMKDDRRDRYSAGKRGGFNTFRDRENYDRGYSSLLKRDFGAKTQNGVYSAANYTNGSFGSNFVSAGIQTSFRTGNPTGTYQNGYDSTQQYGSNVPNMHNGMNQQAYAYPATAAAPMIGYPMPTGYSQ
T2 sequence (P62942 whole entry): as the sequence (P62942 whole entry F37V) above, with V37F counted along it
T4 sequence (P17844 whole entry): as the sequence (P17844 whole entry) above
T4 sequence (Q13501 2-440 partner): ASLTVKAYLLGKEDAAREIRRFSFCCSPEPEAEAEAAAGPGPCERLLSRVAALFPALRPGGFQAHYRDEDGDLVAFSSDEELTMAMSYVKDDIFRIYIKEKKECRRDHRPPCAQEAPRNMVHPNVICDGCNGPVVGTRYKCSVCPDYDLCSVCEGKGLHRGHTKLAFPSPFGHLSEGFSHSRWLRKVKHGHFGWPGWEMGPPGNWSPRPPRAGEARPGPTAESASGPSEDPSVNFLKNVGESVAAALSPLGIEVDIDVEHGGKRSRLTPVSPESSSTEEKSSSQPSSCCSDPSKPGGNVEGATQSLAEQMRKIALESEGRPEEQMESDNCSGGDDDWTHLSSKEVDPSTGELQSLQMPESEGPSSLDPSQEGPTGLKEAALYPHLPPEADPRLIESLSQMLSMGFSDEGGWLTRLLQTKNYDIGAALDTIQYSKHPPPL
T4 sequence (P62942 2-108 F37V partner): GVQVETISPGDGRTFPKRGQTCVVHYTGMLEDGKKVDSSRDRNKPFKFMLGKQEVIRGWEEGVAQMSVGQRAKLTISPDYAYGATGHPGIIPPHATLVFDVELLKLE

| Compound | dot-like structure (droplet) containing GFP-FKBP12 and RFP-p62 [1] | dot-like structure (droplet) containing GFP-FKBP12 and RFP-DDX5 [2] | degradation of GFP-αSyn-FKBP^F36V (GFP fluorescence intensity) ([3]; 1 μM) | degradation of GFP-αSyn-FKBP^F36V (GFP fluorescence intensity) ([3]; 10 μM) | formation of a droplet containing DDX5 and p62 [4] |
| --- | --- | --- | --- | --- | --- |
| CCC(C)(C)C(=O)C(=O)N1CCCC[C@H]1C(=O)O[C@H](CCc1ccc(OC)c(OC)c1)c1cccc(NC(=O)CCC(=O)NCCCOCCOCCOCCCn2cc(-c3nc4c(=O)[nH]c(N)nc4n3Cc3ccc(F)cc3)cn2)c1 [AUTAC2-2G] | a dot-like structure containing GFP-FKBP12 and RFP-p62 were observed | a dot-like structure containing GFP-FKBP12 and RFP-DDX5 |  |  |  |
| CC[C@H](C(=O)N1CCCC[C@H]1C(=O)O[C@H](CCc1ccc(OC)c(OC)c1)c1cccc(OCC(=O)NCCCOCCOCCOCCCn2cc(-c3nc4c(=O)[nH]c(N)nc4n3Cc3ccc(F)cc3)cn2)c1)c1cc(OC)c(OC)c(OC)c1 [SLF′-AUTAC] |  |  | the degradation of GFP-αSyn-FKBP^F36V was observed | the degradation of GFP-αSyn-FKBP^F36V was observed | DDX5 and p62 formed droplets in the cells |
